These results are taken from article PMC10119128, “Parkinson’s disease-associated ATP13A2/PARK9 functions as a lysosomal H^+,K^+-ATPase” (Nature Communications, 2023).

Experiment [1] deals with T1, ATP13A2 (Homo sapiens, UniProt Q9NQ11).
T1 construct: full-length, N-terminal Xpress-tag, membrane fractions of transfected HEK293 cells
T1 sequence (Q9NQ11 1-1180): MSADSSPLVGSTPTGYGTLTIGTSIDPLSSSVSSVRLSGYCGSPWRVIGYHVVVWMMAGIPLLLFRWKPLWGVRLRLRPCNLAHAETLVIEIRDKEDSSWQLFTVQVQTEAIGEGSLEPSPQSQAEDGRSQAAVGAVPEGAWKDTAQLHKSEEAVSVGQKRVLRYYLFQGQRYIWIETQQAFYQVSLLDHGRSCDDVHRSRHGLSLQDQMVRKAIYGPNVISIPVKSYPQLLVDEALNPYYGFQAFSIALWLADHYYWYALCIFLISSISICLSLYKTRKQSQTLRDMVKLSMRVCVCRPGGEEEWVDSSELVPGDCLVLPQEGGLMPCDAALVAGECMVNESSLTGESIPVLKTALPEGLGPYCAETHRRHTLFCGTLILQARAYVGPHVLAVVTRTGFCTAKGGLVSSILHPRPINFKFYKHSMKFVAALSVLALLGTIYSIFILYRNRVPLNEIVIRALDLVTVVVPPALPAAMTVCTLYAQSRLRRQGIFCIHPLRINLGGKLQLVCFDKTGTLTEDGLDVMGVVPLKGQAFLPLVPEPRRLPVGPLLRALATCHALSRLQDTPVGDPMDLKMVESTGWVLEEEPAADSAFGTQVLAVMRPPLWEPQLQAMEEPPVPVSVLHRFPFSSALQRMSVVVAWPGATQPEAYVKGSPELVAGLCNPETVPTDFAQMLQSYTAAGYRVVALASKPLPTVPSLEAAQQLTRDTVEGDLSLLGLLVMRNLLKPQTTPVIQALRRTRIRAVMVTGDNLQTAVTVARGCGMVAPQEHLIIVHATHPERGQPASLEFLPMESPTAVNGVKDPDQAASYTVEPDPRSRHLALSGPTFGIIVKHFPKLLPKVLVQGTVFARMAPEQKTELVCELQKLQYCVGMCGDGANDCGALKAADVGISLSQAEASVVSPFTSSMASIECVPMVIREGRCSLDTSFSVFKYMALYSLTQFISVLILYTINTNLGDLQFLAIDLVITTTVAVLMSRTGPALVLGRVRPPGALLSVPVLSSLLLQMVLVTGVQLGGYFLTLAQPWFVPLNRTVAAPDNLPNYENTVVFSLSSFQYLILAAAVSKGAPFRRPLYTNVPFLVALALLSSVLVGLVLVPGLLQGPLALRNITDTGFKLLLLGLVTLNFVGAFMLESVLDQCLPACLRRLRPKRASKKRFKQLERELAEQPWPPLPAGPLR
The experiment is described as follows: ΔTG-sensitive ATPase activity in membrane fractions, mock control; […]+ efflux; siRNA knockdown in SH-SY5Y. In kind it is biochemical.

Experiment [2] has as its target T1, ATP13A2. As to the kind of experiment: ΔTG-sensitive ATPase activity in membrane fractions, mock control; […]+ efflux. Type of experiment: biochemical.

In the case of `Cc1nc2c(OCc3ccccc3)cccn2c1CC#N` [SCH28080], half-maximal inhibition against ATP13A2 [1] (IC50) was put at 1200 nM.

Consider `CO/C1=C\C(C)=C\[C@@H](C)[C@@H](O)[C@@H](C)C/C(C)=C/C=C/[C@H](OC)[C@@H]([C@@H](C)[C@@H](O)[C@H](C)[C@@]2(O)C[C@@H](O)[C@H](C)[C@@H](C(C)C)O2)OC1=O` [bafilomycin A1], for which 0.5 nM corresponded to half-maximal inhibition against ATP13A2 [2] (IC50).

`CNCc1cc(-c2ccccc2F)n(S(=O)(=O)c2cccnc2)c1` [vonoprazan]: on ATP13A2 [1], it took 800 nM to reach half-maximal inhibition (IC50).
